The results in this text go back to patent US10669242B2 (priority 2016, dated 2020).

Experiment [1] addresses T1, recombinant glucosyltransferase domain of C. difficile Toxin B/TcdB (Clostridioides difficile, UniProt P18177).
T1 construct: 6-His (C); purchased R&D Systems 6246-GT
Briefly: biochemical.

Experiment [2] relates to C. difficile toxin (TcdA and TcdB, ~1:1). Briefly: Murine C. difficile toxin model (intrarectal toxin). The settings on record: murine C. difficile toxin model, PO, 50 mg/kg body weight. The class given is in vivo, C57BL/6 mice. As for the experimental part:
In the following studies, we established a murine C. difficile toxin model with modifications from a published murine model (Hirota, Iablokov et al. 2012). Details of the murine C. difficile toxin model are described in the “Experimental Protocols” (below). C. difficile toxins were isolated from a culture of the C. difficile strain VPI 10463. C. difficile toxins consisted of TcdA and TcdB (˜1:1 ratio of TcdA:TcdB). Respective TcdA and TcdB concentrations were determined by enzyme-linked immunosorbant assay (ELISA). In our mouse model, C. difficile toxins were administered intrarectally to evaluate their pathological effects.
We administered C. difficile toxin (12.5 μg/mouse) via intrarectal instillation into female C57BL/6 mice. Four (4) animals were used in each group. Four (4) hours after the toxin administration, the mice were euthanized. The colons were excised from the animals and washed with phosphate buffered saline (PBS). The colon lengths were measured. Excised colon tissues were stored at −70° C. for chemical analysis of interleukin-1β(IL-1β) and myeloperosidase (MPO) in tissues, which are the hallmarks of colon inflammation. Excised colon tissues were also stored at room temperature in 10% neutral buffered formalin for histopathological analysis.
Using the murine C. difficile toxin model (Example 61), we evaluated the efficacy of Example 6a in reducing the C. difficile toxin activity. In this study, the isolated toxin (12.5 μg) was diluted in 50 μl of PBS and mixed with a 50 μl suspension of Example 6a (10 mg/mL) in 1% carboxymethyl cellulose and 0.5% Tween 80 to achieve a fixed dose of […] of Example 6a (0.5 mg in mice weighing ˜20 g) and C. difficile toxin (12.5 μg). Three (3) animals were used in each group.
In this study, we evaluated the efficacy of Example 6a via different routes of administration (i.e., oral (PO) and intraperitoneal (IP) administrations) in the same murine C. difficile toxin model (Example 61). In both PO and IP dosages, Example 6a was prepared as 5 mg/mL solutions in 20% PEG-400, 0.4% carboxymethyl cellulose and 0.2% Tween 80. Example 6a was administered at a final dose of 50 mg/kg body weight. Three (3) mice were used in each group (i.e., vehicle (control), PO and IP).
Using the murine C. difficile toxin model (Example 63), we further tested the efficacy of four (4) additional compounds (i.e., Example 6a, Example 5ae, Example 4cl, and Example 5al) via PO administration. All of the compounds were dosed orally at 50 mg/kg body weight. In three separate studies a total of three (3) to fourteen (14) mice were used in each group.
We evaluated the efficacy of additional compounds in reducing C. difficile toxicity. Using the PO administration (Example 63), we further tested 30 compounds (Table 34). All of the compounds were dosed orally at 50 mg/kg body weight. Three (3) to fourteen (14) animals were used for each compound. % inhibition was determined by the following formula: […]
An overnight culture of C. difficile strain VPI 10463 (American Type Culture Collection) was grown at 37° C. in Brain-Heart Infusion (BHI) broth using the GasPak EZ Anaerobe Pouch System (Becton Dickinson). 2 mL of the culture was added to 28 mL of phosphate buffered saline (PBS) in a gamma-irradiated, 10,000 molecular weight cut-off, 30-70 ml Slide-A-Lyzer G2 dialysis cassette (Pierce). This cassette was submerged in 1 L of BHI broth in a 2 L beaker and incubated under anaerobic conditions for 5 days at 37° C. The culture was then transferred to a 50 mL conical tube and the cassette was washed with 10 mL of PBS. The combined culture and wash were centrifuged at 2,000 g for 20 minutes to pellet the bacteria and the supernatant was filtered through a 0.2 μm syringe filter. The filtrate was then applied to a 20 mL 150 K molecular weight cut-off concentration column (Pierce) and centrifuged at 2,000 g for 15 minutes. Concentrated supernatant was stored at 4° C. […]

For experiment [3], the target named is T2, C. difficile full-length toxin TcdB (Clostridioides difficile, UniProt P18177).
T2 construct: C. difficile full-length toxins (TcdA or TcdB); purchased EMD Millipore 616377
T2 sequence (P18177 2-2366 limits assumed): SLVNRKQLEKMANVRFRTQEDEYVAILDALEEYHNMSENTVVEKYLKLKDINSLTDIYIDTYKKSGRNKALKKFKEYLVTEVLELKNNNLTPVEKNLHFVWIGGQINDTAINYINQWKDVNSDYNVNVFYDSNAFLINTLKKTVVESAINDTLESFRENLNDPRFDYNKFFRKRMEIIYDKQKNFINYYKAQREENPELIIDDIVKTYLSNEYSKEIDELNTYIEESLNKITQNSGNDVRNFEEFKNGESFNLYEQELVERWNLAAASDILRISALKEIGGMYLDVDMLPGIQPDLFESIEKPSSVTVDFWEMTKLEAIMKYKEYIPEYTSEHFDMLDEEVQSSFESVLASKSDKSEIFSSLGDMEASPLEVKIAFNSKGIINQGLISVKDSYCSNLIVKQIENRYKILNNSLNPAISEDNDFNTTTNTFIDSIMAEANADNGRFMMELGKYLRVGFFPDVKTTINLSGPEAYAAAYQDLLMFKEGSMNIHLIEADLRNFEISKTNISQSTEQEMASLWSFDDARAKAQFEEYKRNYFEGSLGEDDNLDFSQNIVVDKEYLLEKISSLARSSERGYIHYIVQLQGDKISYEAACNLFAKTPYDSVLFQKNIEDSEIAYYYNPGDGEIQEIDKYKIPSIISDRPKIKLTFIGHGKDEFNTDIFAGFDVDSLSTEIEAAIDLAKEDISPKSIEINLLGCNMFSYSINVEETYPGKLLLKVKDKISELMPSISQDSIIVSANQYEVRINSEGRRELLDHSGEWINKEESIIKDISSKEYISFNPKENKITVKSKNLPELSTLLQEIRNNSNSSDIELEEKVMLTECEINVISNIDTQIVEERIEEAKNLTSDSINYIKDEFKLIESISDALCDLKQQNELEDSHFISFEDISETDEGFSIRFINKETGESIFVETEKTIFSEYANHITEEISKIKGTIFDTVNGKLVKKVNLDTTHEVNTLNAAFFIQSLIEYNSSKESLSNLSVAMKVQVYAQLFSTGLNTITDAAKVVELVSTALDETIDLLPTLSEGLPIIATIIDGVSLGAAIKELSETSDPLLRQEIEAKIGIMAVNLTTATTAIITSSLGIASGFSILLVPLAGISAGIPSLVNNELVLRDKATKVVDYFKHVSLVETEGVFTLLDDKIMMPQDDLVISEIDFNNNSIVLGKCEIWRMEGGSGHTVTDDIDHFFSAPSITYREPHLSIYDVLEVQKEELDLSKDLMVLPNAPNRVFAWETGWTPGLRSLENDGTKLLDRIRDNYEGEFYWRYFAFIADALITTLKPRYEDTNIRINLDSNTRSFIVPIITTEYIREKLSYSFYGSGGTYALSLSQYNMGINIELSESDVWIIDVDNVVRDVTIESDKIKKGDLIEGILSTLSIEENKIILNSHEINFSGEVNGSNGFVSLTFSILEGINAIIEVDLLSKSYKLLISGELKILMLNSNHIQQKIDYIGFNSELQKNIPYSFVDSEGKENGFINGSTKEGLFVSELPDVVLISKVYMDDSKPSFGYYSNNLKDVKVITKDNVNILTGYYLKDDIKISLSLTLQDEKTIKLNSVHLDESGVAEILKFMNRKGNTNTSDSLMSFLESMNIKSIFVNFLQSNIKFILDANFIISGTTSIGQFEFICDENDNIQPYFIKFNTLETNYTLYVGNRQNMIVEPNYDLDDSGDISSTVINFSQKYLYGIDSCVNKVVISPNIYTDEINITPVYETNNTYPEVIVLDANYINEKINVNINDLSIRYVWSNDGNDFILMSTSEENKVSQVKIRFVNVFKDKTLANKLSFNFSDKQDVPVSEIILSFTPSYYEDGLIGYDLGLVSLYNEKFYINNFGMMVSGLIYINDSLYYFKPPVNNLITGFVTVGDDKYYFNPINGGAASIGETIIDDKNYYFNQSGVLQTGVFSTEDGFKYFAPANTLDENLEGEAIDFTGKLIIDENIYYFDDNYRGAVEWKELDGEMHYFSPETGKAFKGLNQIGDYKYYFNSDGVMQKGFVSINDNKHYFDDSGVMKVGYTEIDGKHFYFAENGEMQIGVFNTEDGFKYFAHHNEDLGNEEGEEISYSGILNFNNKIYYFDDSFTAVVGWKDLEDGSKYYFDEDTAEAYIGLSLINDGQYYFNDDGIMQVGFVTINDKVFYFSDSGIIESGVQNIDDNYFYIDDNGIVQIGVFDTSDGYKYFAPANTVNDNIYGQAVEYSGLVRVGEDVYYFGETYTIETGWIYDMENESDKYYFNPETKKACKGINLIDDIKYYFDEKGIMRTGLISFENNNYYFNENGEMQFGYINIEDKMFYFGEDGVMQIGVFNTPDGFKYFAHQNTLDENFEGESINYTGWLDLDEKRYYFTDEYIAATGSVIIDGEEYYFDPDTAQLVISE
The experiment can be described thus: cell-based.

Experiment [4] concerns the target T3, C. difficile full-length toxin TcdA (Clostridioides difficile, UniProt P16154).
T3 construct: C. difficile full-length toxins (TcdA or TcdB); purchased Enzo Life Sciences BML-G140-0050
The experiment can be described thus: cell-based.

T3 sequence (P16154 whole entry, looked up): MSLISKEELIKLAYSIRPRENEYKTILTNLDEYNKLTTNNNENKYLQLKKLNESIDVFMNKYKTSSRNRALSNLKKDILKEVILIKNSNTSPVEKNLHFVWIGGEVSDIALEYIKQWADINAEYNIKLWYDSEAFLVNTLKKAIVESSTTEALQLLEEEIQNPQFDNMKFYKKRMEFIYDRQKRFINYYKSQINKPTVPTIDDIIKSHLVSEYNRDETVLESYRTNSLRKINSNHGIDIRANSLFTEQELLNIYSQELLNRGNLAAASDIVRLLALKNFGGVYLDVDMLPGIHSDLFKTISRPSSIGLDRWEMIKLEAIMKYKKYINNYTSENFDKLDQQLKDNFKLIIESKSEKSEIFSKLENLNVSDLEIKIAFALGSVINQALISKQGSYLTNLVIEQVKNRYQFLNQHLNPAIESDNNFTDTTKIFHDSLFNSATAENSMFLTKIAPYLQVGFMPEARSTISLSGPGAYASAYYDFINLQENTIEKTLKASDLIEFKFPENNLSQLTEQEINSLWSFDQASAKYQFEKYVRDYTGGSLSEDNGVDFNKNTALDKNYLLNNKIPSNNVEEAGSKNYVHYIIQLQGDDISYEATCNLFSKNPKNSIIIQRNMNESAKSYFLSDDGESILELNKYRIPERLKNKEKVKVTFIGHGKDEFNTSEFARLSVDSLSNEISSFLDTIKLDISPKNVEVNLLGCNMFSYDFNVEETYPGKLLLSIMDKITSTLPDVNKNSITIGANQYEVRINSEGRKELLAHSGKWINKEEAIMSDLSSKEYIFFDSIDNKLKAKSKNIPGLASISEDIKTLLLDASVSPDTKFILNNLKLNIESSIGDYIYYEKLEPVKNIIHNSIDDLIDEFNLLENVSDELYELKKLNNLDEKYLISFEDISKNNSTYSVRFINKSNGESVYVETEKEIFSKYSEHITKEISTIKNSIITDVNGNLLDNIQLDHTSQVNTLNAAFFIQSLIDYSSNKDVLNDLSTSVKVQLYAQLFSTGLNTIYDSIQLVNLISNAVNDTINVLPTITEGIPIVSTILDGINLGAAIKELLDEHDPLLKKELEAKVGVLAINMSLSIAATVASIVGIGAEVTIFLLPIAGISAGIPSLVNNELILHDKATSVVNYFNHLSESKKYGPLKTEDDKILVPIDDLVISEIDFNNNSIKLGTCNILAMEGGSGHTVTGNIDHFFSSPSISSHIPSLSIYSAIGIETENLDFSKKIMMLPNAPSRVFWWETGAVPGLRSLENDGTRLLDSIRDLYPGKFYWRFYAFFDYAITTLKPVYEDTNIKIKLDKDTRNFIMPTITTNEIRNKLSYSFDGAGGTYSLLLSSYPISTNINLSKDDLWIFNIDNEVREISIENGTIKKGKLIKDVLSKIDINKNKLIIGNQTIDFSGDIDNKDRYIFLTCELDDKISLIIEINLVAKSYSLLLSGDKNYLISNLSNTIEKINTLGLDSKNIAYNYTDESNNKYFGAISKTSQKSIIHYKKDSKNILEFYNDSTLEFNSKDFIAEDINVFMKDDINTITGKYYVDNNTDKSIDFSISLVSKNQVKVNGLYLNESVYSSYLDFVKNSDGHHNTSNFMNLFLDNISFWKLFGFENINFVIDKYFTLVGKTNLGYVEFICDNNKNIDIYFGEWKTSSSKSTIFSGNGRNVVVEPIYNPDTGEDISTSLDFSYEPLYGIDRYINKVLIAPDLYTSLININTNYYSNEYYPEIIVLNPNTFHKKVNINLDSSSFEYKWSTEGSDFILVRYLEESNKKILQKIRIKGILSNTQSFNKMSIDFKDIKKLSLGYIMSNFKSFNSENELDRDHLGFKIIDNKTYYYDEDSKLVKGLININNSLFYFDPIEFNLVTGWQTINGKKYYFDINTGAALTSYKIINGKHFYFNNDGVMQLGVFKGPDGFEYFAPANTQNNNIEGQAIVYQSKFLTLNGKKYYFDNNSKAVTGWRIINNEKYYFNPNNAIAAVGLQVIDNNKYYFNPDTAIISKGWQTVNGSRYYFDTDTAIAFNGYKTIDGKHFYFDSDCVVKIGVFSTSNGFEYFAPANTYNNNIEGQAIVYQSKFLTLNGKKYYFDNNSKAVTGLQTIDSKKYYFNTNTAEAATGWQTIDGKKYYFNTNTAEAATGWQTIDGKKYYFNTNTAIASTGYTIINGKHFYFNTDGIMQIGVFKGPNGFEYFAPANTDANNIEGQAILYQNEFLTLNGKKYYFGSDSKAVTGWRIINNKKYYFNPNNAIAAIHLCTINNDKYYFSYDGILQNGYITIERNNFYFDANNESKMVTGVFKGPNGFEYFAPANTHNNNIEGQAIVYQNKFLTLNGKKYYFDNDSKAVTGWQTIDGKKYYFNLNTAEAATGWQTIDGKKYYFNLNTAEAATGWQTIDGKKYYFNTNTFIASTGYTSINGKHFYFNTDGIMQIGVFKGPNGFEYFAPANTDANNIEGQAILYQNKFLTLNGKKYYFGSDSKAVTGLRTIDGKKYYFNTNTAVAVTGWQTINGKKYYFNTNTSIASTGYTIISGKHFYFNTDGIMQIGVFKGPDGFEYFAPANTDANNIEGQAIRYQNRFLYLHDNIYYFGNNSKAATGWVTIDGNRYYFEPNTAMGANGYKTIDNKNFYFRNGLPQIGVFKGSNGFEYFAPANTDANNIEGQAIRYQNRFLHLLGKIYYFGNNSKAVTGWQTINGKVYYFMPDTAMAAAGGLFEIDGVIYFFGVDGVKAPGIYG

For `COc1cc(CN2C(=O)c3ccc(Cl)cc3NC(=O)[C@H]2Cc2ccccn2)ccc1C(=O)Nc1cnc(C)cn1` [Example 5aj, (R)-4-((8-Chloro-2,5-dioxo-3-(pyridin-2-ylmethyl)-2,3-dihydro-1H-benzo[e][1,4]diazepin-4(5H)-yl)methyl)-2-methoxy-N-(5-methylpyrazin-2-yl)benzamide], the figures for the IC50 in experiment [1], in experiment [3] and in experiment [4] were < 0.1 µM, 0.1 to 0.999 µM and 1 to 10 µM, respectively. For the same molecule, the “IL-1β (% Inhibition)” value in experiment [2] was 76%. In experiment [2], the “MPO (% Inhibition)” value is listed as 17%.

For the molecule `O=C(c1ccccn1)c1ccc(CN2C(=O)c3ccc(Cl)cc3NC(=O)[C@H]2Cc2ccccn2)cc1Cl` [Example 11g, (R)-8-Chloro-4-(3-chloro-4-picolinoylbenzyl)-3-(pyridin-2-ylmethyl)-3,4-dihydro-1H-benzo[e][1,4]diazepine-2,5-dione], the IC50 in experiment [1] was < 0.1 µM; in experiment [3], 1 to 10 µM; in experiment [4] it was > 10 µM. For the same molecule, the “IL-1β (% Inhibition)” value in experiment [2] amounted to 15%. Moreover, the “MPO (% Inhibition)” value in experiment [2] is given as 28%.

Take `Cc1ccc(C(=O)c2ccc(CN3C(=O)c4ccc(Cl)cc4NC(=O)[C@H]3Cc3ccccn3)cc2)nc1` [Example 11b, (R)-8-Chloro-4-(4-(5-methylpicolinoyl)benzyl)-3-(pyridin-2-ylmethyl)-3,4-dihydro-1H-benzo[e][1,4]diazepine-2,5-dione]: the IC50 in experiment [1] was < 0.1 µM; in experiment [3] it was 1 to 10 µM; in experiment [4], > 10 µM. For the same molecule, the “IL-1β (% Inhibition)” value in experiment [2] was 52%. In addition, the “MPO (% Inhibition)” value in experiment [2] worked out at 100%.

For `O=C(Nc1ccc(F)cn1)c1ccc(CN2C(=O)c3ccc(Cl)cc3NC(=O)[C@H]2Cc2ccccn2)cc1` [Example 4a, (R)-4-((8-Chloro-2,5-dioxo-3-(pyridin-2-ylmethyl)-2,3-dihydro-1H-benzo[e][1,4]diazepin-4(5H)-yl)methyl)-N-(5-fluoropyridin-2-yl)benzamide], the results for the IC50 in experiment [1], in experiment [3] and in experiment [4] were < 0.1 µM, < 0.1 µM and 1 to 10 µM, respectively. The “IL-1β (% Inhibition)” value in experiment [2] stood at 30%. For the same molecule, the “MPO (% Inhibition)” value in experiment [2] is given as 51%.

For `COc1cnc(NC(=O)c2ccc(CN3C(=O)c4ccc(Cl)cc4NC(=O)[C@H]3Cc3ccccn3)cc2Cl)cn1` [Example 4ci, (R)-2-Chloro-4-((8-chloro-2,5-dioxo-3-(pyridin-2-ylmethyl)-2,3-dihydro-1H-benzo[e][1,4]diazepin-4(5H)-yl)methyl)-N-(5-methoxypyrazin-2-yl)benzamide], the IC50 in experiment [1] is < 0.1 µM; in experiment [3], 0.1 to 0.999 µM; in experiment [4] it was 1 to 10 µM. Besides, the “IL-1β (% Inhibition)” value in experiment [2] came to 86%. The “MPO (% Inhibition)” value in experiment [2] was determined as 19%.

Turning to `COc1cnc(NC(=O)c2ccc(CN3C(=O)c4ccc(Cl)cc4NC(=O)[C@H]3Cc3ccccn3)cc2C)cn1` [Example 5af, (R)-4-((8-Chloro-2,5-dioxo-3-(pyridin-2-ylmethyl)-2,3-dihydro-1H-benzo[e][1,4]diazepin-4(5H)-yl)methyl)-N-(5-methoxypyrazin-2-yl)-2-methylbenzamide], the IC50 in experiment [1] is < 0.1 µM; in experiment [3], 0.1 to 0.999 µM; in experiment [4], 1 to 10 µM. Besides, the “IL-1β (% Inhibition)” value in experiment [2] turned out to be 100%. Further, the “MPO (% Inhibition)” value in experiment [2] is reported as 100%.

`O=C1Nc2cc(Cl)ccc2C(=O)N(Cc2ccc(N3Cc4cccnc4C3=O)cc2)[C@@H]1Cc1ccccn1` [Example 49c, (R)-8-Chloro-4-(4-(7-oxo-5H-pyrrolo[3,4-b]pyridin-6(7H)-yl)benzyl)-3-(pyridin-2-ylmethyl)-3,4-dihydro-1H-benzo[e][1,4]diazepine-2,5-dione]: the results for the IC50 in experiment [1], in experiment [3] and in experiment [4] were < 0.1 µM, > 10 µM and > 10 µM, respectively. Also, in experiment [2], the “IL-1β (% Inhibition)” value was 30%. For the same molecule, in experiment [2], the “MPO (% Inhibition)” value was determined as 0%.

Regarding `COc1ccc(NC(=O)c2ccc(CN3C(=O)c4ccc(Cl)cc4NC(=O)[C@H]3Cc3ccccn3)cc2Cl)nc1` [Example 4by, (R)-2-Chloro-4-((8-chloro-2,5-dioxo-3-(pyridin-2-ylmethyl)-2,3-dihydro-1H-benzo[e][1,4]diazepin-4(5H)-yl)methyl)-N-(5-methoxypyridin-2-yl)benzamide], the IC50 in experiment [1] is < 0.1 µM; in experiment [3], < 0.1 µM; in experiment [4], 0.1 to 0.999 µM. For the same molecule, the “IL-1β (% Inhibition)” value in experiment [2] was determined as 46%. Also, the “MPO (% Inhibition)” value in experiment [2] was determined as 1%.

`Cc1cnc(NC(=O)c2ccc(CN3C(=O)c4ccc(Cl)cc4NC(=O)[C@H]3Cc3ccccn3)cc2C)cn1` [Example 5ah, (R)-4-((8-Chloro-2,5-dioxo-3-(pyridin-2-ylmethyl)-2,3-dihydro-1H-benzo[e][1,4]diazepin-4(5H)-yl)methyl)-2-methyl-N-(5-methylpyrazin-2-yl)benzamide]: the concentration for half-maximal inhibition (IC50) in experiment [1] is < 0.1 µM; in experiment [3], 0.1 to 0.999 µM; in experiment [4], 1 to 10 µM. Also, the “IL-1β (% Inhibition)” value in experiment [2] stood at 91%. The “MPO (% Inhibition)” value in experiment [2] was 65%.

For `COc1cnc(NC(=O)c2ccc(CN3C(=O)c4ccc(Cl)cc4NC(=O)[C@H]3Cc3ccccn3)cc2Cl)nc1` [Example 5ab, (R)-2-Chloro-4-((8-chloro-2,5-dioxo-3-(pyridin-2-ylmethyl)-2,3-dihydro-1H-benzo[e][1,4]diazepin-4(5H)-yl)methyl)-N-(5-methoxypyrimidin-2-yl)benzamide], the IC50 in experiment [1] was < 0.1 µM; in experiment [3] it was < 0.1 µM; in experiment [4], 1 to 10 µM. Further, in experiment [2], the “IL-1β (% Inhibition)” value was 100%. In addition, in experiment [2], the “MPO (% Inhibition)” value came to 100%.

For the molecule `O=C(Nc1ccc(CN2C(=O)c3ccc(Cl)cc3NC(=O)[C@H]2Cc2ccccn2)cc1)c1c[nH]cn1` [Example 27j, (R)-N-(4-((8-Chloro-2,5-dioxo-3-(pyridin-2-ylmethyl)-2,3-dihydro-1H-benzo[e][1,4]diazepin-4(5H)-yl)methyl)phenyl)-1H-imidazole-4-carboxamide], the values for the IC50 in experiment [1], in experiment [3] and in experiment [4] were < 0.1 µM, 1 to 10 µM and > 10 µM, respectively. Also, the “IL-1β (% Inhibition)” value in experiment [2] turned out to be 41%. Moreover, the “MPO (% Inhibition)” value in experiment [2] is on record as 1%.

`O=C1Nc2cc(Cl)ccc2C(=O)N(Cc2ccc(N3CCc4cccnc4C3=O)cc2)[C@@H]1Cc1ccccn1` [Example 49b, (R)-8-Chloro-4-(4-(8-oxo-5,6-dihydro-1,7-naphthyridin-7(8H)-yl)benzyl)-3-(pyridin-2-ylmethyl)-3,4-dihydro-1H-benzo[e][1,4]diazepine-2,5-dione]: the figures for the half-maximal inhibitory concentration (IC50) in experiment [1], in experiment [3] and in experiment [4] were < 0.1 µM, 1 to 10 µM and > 10 µM, respectively. Besides, in experiment [2], the “IL-1β (% Inhibition)” value turned out to be 13%. Moreover, the “MPO (% Inhibition)” value in experiment [2] amounted to 0%.

`Cn1cc(C(=O)c2ccc(CN3C(=O)c4ccc(Cl)cc4NC(=O)[C@H]3Cc3ccccn3)cc2)c2ncccc21` [Example 31a, (R)-8-Chloro-4-(4-(1-methyl-1H-pyrrolo[3,2-b]pyridine-3-carbonyl)benzyl)-3-(pyridin-2-ylmethyl)-3,4-dihydro-1H-benzo[e][1,4]diazepine-2,5-dione]: the concentration for half-maximal inhibition (IC50) in experiment [1] is < 0.1 µM; in experiment [3], 0.1 to 0.999 µM; in experiment [4] it was 1 to 10 µM. The “IL-1β (% Inhibition)” value in experiment [2] came to 100%. Further, in experiment [2], the “MPO (% Inhibition)” value is on record as 100%.
